According to patent US20070129288A1, “Antibacterial amide macrocycles” (BAYER HEALTHCARE AG, priority 2002, published 2007):
Converted amounts (≈) assume the structure as drawn. Counter-ions that a name gives are not always drawn. Like-named read-outs stand apart in the source and are kept apart here.

Tests used:
[1] = molecular target: translation of firefly luciferase, S. aureus 133 S30 extract; test: In vitro transcription-translation with S. aureus extracts; assay type: biochemical; conditions: reporter plasmid pla, 30° C., 60 min, luciferase luminescence
Description: (§1) In vitro Transcription-translation with S. aureus Extracts
(§2) Construction of an S. aureus Luciferase Reporter Plasmid
(§3) A reporter plasmid which can be used in an in vitro transcription-translation assay for S. aureus is constructed by using the plasmid pBESTluc (Promega Corporation, USA). The E. coli tac promoter present in this plasmid in front of the firefly luciferase is replaced by the capAl promoter with appropriate Shine-Dalgarno sequence from S. aureus. The primers CAPFor 5′-[…] […]-3′ and CAPRev 5′-[…]-3′ are used for this. The primer CAPFor contains the capAl promoter, the ribosome binding site and the 5′ region of the luciferase gene. After PCR using pBESTluc as template it is possible to isolate a PCR product which contains the firefly luciferase gene with the fused capAl promoter. This is, after restriction with Clal and HindIII, ligated into the vector pBESTluc which has likewise been digested with ClaI and HindIII. The resulting plasmid pla is able to replicate in E. coli and be used as template in the S. aureus in vitro transcription-translation assay.
(§4) Preparation of S30 Extracts from S. aureus
(§5) Six liters of BHI medium are inoculated with a 250 ml overnight culture of an S. aureus strain and allowed to grow at 37° C. until the OD600 nm is 2-4. The cells are harvested by centrifugation and washed in 500 ml of cold buffer A (10 mM Tris acetate, pH 8.0, 14 mM Mg acetate, 1 mM DTT, 1 M KCl). After renewed centrifugation, the cells are washed in 250 ml of cold buffer A with 50 mM KCl, and the resulting pellets are frozen at −20° C. for 60 min. The pellets are thawed on ice in 30 to 60 min and taken up to a total volume of 99 ml in buffer B (10 mM Tris acetate, pH 8.0, 20 mM Mg acetate, 1 mM DTT, 50 mM KCl). 1.5 ml portions of lysostaphin (0.8 mg/ml) in buffer B are introduced into 3 precooled centrifuge cups and each mixed with 33 ml of the cell suspension. The samples are incubated at 37° C., shaking occasionally, for 45 to 60 min, before 150 μl of a 0.5 M DTT solution are added. The lyzed cells are centrifuged at 30 000×g and 4° C. for 30 min. The cell pellet is taken up in buffer B and then centrifuged again under the same conditions, and the collected supernatants are combined. The supernatants are centrifuged again under the same conditions, and 0.25 volume of buffer C (670 mM Tris acetate, pH 8.0, 20 mM Mg acetate, 7 mM Na3 phosphenolpyruvate, 7 mM DTT, 5.5 mM ATP, 70 μM amino acids (complete from Promega), 75 μg of pyruvate kinase (Sigma, Germany)/ml are added to the upper 2/3 of the supernatant. The samples are incubated at 37° C. for 30 min. The supernatants are dialyzed against 2 l of dialysis buffer (10 mM Tris acetate, pH 8.0, 14 mM Mg acetate, 1 mM DTT, 60 mM K acetate) in a dialysis tube with a 3500 Da cut-off with one buffer change at 4° C. overnight. The dialysate is concentrated to a protein concentration of about 10 mg/ml by covering the dialysis tube with cold PEG 8000 powder (Sigma, Germany) at 4° C. The S30 extracts can be stored in aliquots at −70° C.
(§6) Determination of the IC50 in the S. aureus in vitro Transcription-translation Assay
(§7) Inhibition of protein biosynthesis of the compounds can be shown in an in vitro transcription-translation assay. The assay is based on the cell-free transcription and translation of firefly luciferase using the reporter plasmid pla as template and cell-free S30 extracts obtained from S. aureus. The activity of the resulting luciferase can be detected by luminescence measurement. […]

[2] = molecular target: translation of firefly luciferase, S. aureus RN4220 S30 extract; test: as above; assay type: biochemical; conditions: reporter plasmid pla, 30° C., 60 min, luciferase luminescence
Description: as §1, §2, §3, §4, §5, §6, §7

[3] = test system: translation of firefly luciferase, Escherichia coli MRE 600 S30 extract; test: In vitro transcription-translation with E. coli extracts; assay type: biochemical; conditions: plasmid pBESTLuc, 30° C., 60 min, luciferase luminescence, read-out: IC50 E. coli MRE600 Translation
Experimental: In vitro Transcription-translation with E. coli Extracts
An S30 extract is prepared by harvesting logarithmically growing Escherichia coli MRE 600 (M. Müller; University Freiburg), washing and employing them as described for the in vitro transcription-translation assay (Müller, M. and Blobel, G. Proc Natl Acad Sci USA (1984) 81, pp. 7421-7425).
1 μl of cAMP (11.25 mg/ml) are additionally added per 50 μl of reaction mix to the reaction mix for the in vitro transcription-translation assay. The assay mixture amounts to 105 μl, with 5 μl of the substance to be tested being introduced in 5% strength DMSO. 1 μg/100 μl of mixture of the plasmid pBESTLuc (Promega, Germany) are used as transcription template. After incubation at 30° C. for 60 min, 50 μl of luciferin solution (20 mM tricine, 2.67 mM MgSO4, 0.1 mM EDTA, 33.3 mM DTT pH 7.8, 270 μM CoA, 470 μM luciferin, 530 μM ATP) are added, and the resulting bioluminescence is measured in a luminometer for 1 minute. The IC50 is indicated by the concentration of an inhibitor which leads to 50% inhibition of the translation of firefly luciferase.

S. aureus 133 [4] = test: Systemic infection with S. aureus 133 (mouse sepsis model); assay type: in vivo; conditions: female CFW1 mice, i.p. infection, i.v. therapy 30 minutes after infection, survival recorded for 6 days
Experimental: Systemic Infection with S. aureus 133
The suitability of the compounds of the invention for treating bacterial infections can be shown in various animal models. For this purpose, the animals are generally infected with a suitable virulent microbe and then treated with the compound to be tested, which is in a formulation which is adopted to the particular therapy model.
For this purpose, S. aureus 133 cells are cultured overnight in BH broth (Oxoid, Germany). The overnight culture is diluted 1:100 in fresh BH broth and expanded for 3 hours. The bacteria which are in the logarithmic phase of growth are centrifuged and washed 2× with buffered physiological saline solution. A cell suspension in saline solution with an extinction of 50 units is then adjusted in a photometer (Dr. Lange LP 2W). After a dilution step (1:15), this suspension is mixed 1:1 with a 10% strength mucine suspension. 0.2 ml of this infection solution is administered i.p. per 20 g of mouse. This corresponds to a cell count of about 1-2×10E6 microbes/mouse. The i.v. therapy takes place 30 minutes after the infection. Female CFW1 mice are used for the infection test. The survival of the animals is recorded for 6 days. The animal model is adjusted so that untreated animals die within 24 h after the infection.

[5] = test system: Enterococcus faecalis ICB 27159; test: Minimum inhibitory concentration (MIC), liquid dilution test; assay type: cell-based; conditions: ICB27159, test medium with 10% FCS, 5% CO2, 37° C., 18-24 h, read-out: MIC E. faecalis ICB27159
Experimental: (§8) Determination of the Minimum Inhibitory Concentration (MIC):
(§9) The minimum inhibitory concentration (MIC) is the minimum concentration of an antibiotic with which the growth of a test microbe is inhibited over 18-24 h. The inhibitor concentration can in these cases be determined by standard microbiological methods (see, for example, The National Committee for Clinical Laboratory Standards. Methods for dilution antimicrobial susceptibility tests for bacteria that grow aerobically; approved standard-fifth edition. NCCLS document M7-A5 [ISBN 1-56238-394-9]. NCCLS, 940 West Valley Road, Suite 1400, Wayne, Pa. 19087-1898 USA, 2000). The MIC of the compounds of the invention is determined in the liquid dilution test on the 96-well microtiter plate scale. The bacterial microbes are cultivated in a minimal medium (18.5 mM Na2HPO4, 5.7 mM KH2PO4, 9.3 mM NH4Cl, 2.8 mM MgSO4, 17.1 mM NaCl, 0.033 μg/ml thiamine hydrochloride, 1.2 μg/ml nicotinic acid, 0.003 μg/ml biotin, 1% glucose, 25 μg/ml of each proteinogenic amino acid with the exception of phenylalanine; [H.-P. Kroll; unpublished]) with addition of 0.4% BH broth (test medium). In the case of Enterococcus faecalis ICB 27159, heat-inactivated fetal calf serum (FCS; GibcoBRL, Germany) is added to the test medium in a final concentration of 10%. Overnight cultures of the test microbes are diluted to an OD578 of 0.001 (to 0.01 in the case of Enterococci) in fresh test medium, and incubated 1:1 with dilutions of the test substances (1:2 dilution steps) in test medium (150 μl final volume). The cultures are incubated at 37° C. for 18-24 hours; Enterococci in the presence of 5% CO2.
(§10) The lowest substance concentration in each case at which bacterial growth was no longer visible is defined as the MIC. […] The compounds show a graded antibacterial effect against most of the test microbes.

S. aureus 25701 = test: as above; assay type: cell-based; conditions: Staphylococcus aureus, minimal medium with 0.4% BH broth, 37° C., 18-24 h
Experimental: as §8, §9, §10

S. aureus 133 [6] = test: as above; assay type: cell-based
Experimental: as §8, §9, §10

B. catarrhalis M3 = test: as above; assay type: cell-based; conditions: Moraxella catarrhalis, minimal medium with 0.4% BH broth, 37° C., 18-24 h
Experimental: as §8, §9, §10

S. aureus RN4220 = test: as above; assay type: cell-based; conditions: Staphylococcus aureus, minimal medium with 0.4% BH broth, 37° C., 18-24 h
Experimental: as §8, §9, §10

[7] = Staphylococcus aureus, 133, read-out: MIC S. aureus 133

Row | Structure (SMILES) | IC50 [1] [nM] | IC50 [2] [nM] | IC50 [3] [nM] | therapeutic effect ED100 (S. aureus 133 [4]) [mg/kg] | MIC [5] [µM] | MIC (S. aureus 25701) [µM] | MIC (S. aureus 133 [6]; [7]) [µM] | MIC (B. catarrhalis M3) [µM] | MIC (S. aureus RN4220) [µM] | MIC (S. aureus 133 [6]; Staphylococcus aureus, 133, minimal medium with 0.4% BH broth, 37° C., 18-24 h, read-out: MIC S. aureus 133) [µM]
1 | NC[C@H](O)C[C@@H]1NC(=O)[C@@H](N)Cc2cc(ccc2O)-c2ccc(O)c(c2)C[C@@H](C(=O)NCc2ccccc2)NC1=O [Example 2, (8S,11S,14S)-14-Amino-11-[(2R)-3-amino-2-hydroxypropyl]-N-benzyl-5,17-dihydroxy-10,13-dioxo-9,12-diazatricyclo[14.3.1.1^2,6]henicosa-1(20),2(21),3,5,16,18-hexaene-8-carboxamide dihydrochloride] | 1300 to 4500 | 3400 | 550 | 1.25 | 25 | 50 | 25 | 25 | 12.5 | –
2 | NC[C@H](O)C[C@@H]1NC(=O)[C@@H](N)Cc2cc(ccc2O)-c2ccc(O)c(c2)C[C@@H](C(N)=O)NC1=O [Example 1, (8S,11S,14S)-14-Amino-11-[(2R)-3-amino-2-hydroxypropyl]-5,17-dihydroxy-10,13-dioxo-9,12-diazatricyclo[14.3.1.1^2,6]henicosa-1(20),2(21),3,5,16,18-hexaene-8-carboxamide dihydrochloride] | 900 | 500 | 150 | – | 6.25 | 6.25 | 0.2 | 1.56 | 0.1 | –
3 | NC[C@H](O)C[C@@H]1NC(=O)[C@@H](N)Cc2cc(ccc2O)-c2ccc(O)c(c2)C[C@@H](C(=O)NCC(N)=O)NC1=O [Example 37] | 500 | – | – | – | – | – | – | – | – | 0.8 (≈ 0.423 µg/mL)
